Read-outs that look alike come from different tables or passages of the source.
Experiments:
SJSA-1 cells = test: Protocol B: SJSA-1 CellTiter-Glo luminescent cell viability assay
Procedure: Protocol B: SJSA-1 and SN40R2 Assays
The CellTiter-Glo® Luminescent Cell Viability Assay is a homogeneous method to determine the number of viable cells in culture based on quantitation of the ATP present, which signals the presence of metabolically active cells. […] 100 μl of CTG reagent (Promega #G7573) was added to all wells and luminescence was measured on the topcount. The EC50 values were determined from a sigmoidal 4 parameter curve fit using XLfit in conjunction with Activity Base (IDBS; Guildford, Surrey, UK).

SN40R2 cells = test: Protocol B: SN40R2 CellTiter-Glo luminescent cell viability assay; conditions: for IC50: read-out: SN40R2 IC50 (μM) (Protocol B)
[1] = Homo sapiens, SJSA-1, read-out: SJSA1 IC50 (μM) (Protocol B), SJSA-1, Protocol B
[2] = read-out: SJSA1 IC50 (μM) (Protocol B), SJSA-1, Protocol B
[3] = Homo sapiens, SJSA-1, read-out: SJSA1 IC50 (μM), Protocol B, SJSA-1
[4] = read-out: SN40R2 % inhibition at 10
[5] = read-out: SJSA1 IC50, Protocol B, SJSA-1

| SMILES | inhibition at 10 µM (SN40R2 cells; [4]) [%] | also measured |
| --- | --- | --- |
| CO[C@]1(c2ccc(Cl)cc2)c2c(F)cc(C(C)(O)c3ncc[nH]3)cc2C(=O)N1Cc1ccc(Cl)cn1 (single isomer, unassigned) [Example 163] |  | IC50 (SJSA-1 cells; [1]): 3.1 µM; IC50 (SN40R2 cells): 13 µM |
| CO[C@]1(c2ccc(Cl)cc2)c2c(F)cc(C(C)(O)c3nccs3)cc2C(=O)N1Cc1ccc(Cl)cn1 (single isomer, unassigned) [Example 165] |  | IC50 (SJSA-1 cells; [2]): 1.4 µM; IC50 (SN40R2 cells): 13 µM |
| CCC(O)(c1cc(F)c2c(c1)C(=O)N(Cc1ccc(C#N)cn1)[C@@]2(OCCO)c1ccc(Cl)cc1)c1cscn1 (single isomer, unassigned) [Example 333] | 5 | IC50 (SJSA-1 cells; [3]): 0.22 µM |
| CCC(O)(c1cc(F)c2c(c1)C(=O)N(Cc1ccc(C#N)cn1)[C@@]2(OCC1(CO)CC1)c1ccc(Cl)cc1)c1cn(C)cn1 (single isomer, unassigned) [Example 338] | 6 | IC50 (SJSA-1 cells; [5]): 1.5 µM |
| CCC(O)(CN1CCN(C)CC1)c1cc(F)c2c(c1)C(=O)N(Cc1ncc(Cl)cn1)[C@@]2(O[C@H]1CCOC1)c1ccc(Cl)cc1 (single isomer, unassigned) [Example 522] | 24 | IC50 (SJSA-1 cells; [5]): 0.048 µM |
| CCC(O)(CN1CCN(C)CC1)c1cc(F)c2c(c1)C(=O)N(Cc1ncc(Cl)cn1)[C@@]2(OCC1(C#N)CC1)c1ccc(Cl)cc1 (single isomer, unassigned) [Example 534] | 44 | IC50 (SJSA-1 cells; [5]): 0.7 µM |
| [2H]C([2H])(O)C1(C([2H])([2H])O[C@]2(c3ccc(Cl)cc3)c3c(F)cc(C(C)(O)CC)cc3C(=O)N2Cc2ncc(C#N)cn2)CC1 (single isomer, unassigned) [Example 576] | 5 | IC50 (SJSA-1 cells; [3]): 0.14 µM |
| CO[C@]1(c2ccc(Cl)cc2)c2c(F)cc(C(C)(O)c3cn(C)c(C)n3)cc2C(=O)N1Cc1ccc(Cl)cn1 (stereo partly drawn) [Example 162, (3R)-3-(4-Chlorophenyl)-2-[(5-chloropyridin-2-yl)methyl]-6-[1-(1,2-dimethyl-1H-imidazol-4-yl)-1-hydroxyethyl]-4-fluoro-3-methoxy-2,3-dihydro-1H-isoindol-1-one] |  | IC50 (SJSA-1 cells; [2]): 0.22 µM; IC50 (SN40R2 cells): 13 µM |
| CO[C@]1(c2ccc(Cl)cc2)c2c(F)cc(C(C)(O)C3CN(C)C3)cc2C(=O)N1Cc1ccc(Cl)cn1 (stereo partly drawn) [Example 307, (3R)-3-(4-chlorophenyl)-2-[(5-chloropyridin-2-yl)methyl]-4-fluoro-6-[1-hydroxy-1-(1-methylazetidin-3-yl)ethyl]-3-methoxy-2,3-dihydro-1H-isoindol-1-one] |  | IC50 (SJSA-1 cells; [1]): 1.9 µM; IC50 (SN40R2 cells): 11 µM |
| Cn1cc(C(C)(O)c2cc(F)c3c(c2)C(=O)N(Cc2ccc(Cl)cn2)[C@@]3(OCC2(CO)CC2)c2ccc(Cl)cc2)cn1 (stereo partly drawn) [Example 346, (3R)-3-(4-chlorophenyl)-2-[(5-chloropyridin-2-yl)methyl]-4-fluoro-6-[1-hydroxy-1-(1-methyl-1H-pyrazol-4-yl)ethyl]-3-{[1-(hydroxymethyl)cyclopropyl]methoxy}-2,3-dihydro-1H-isoindol-1-one] |  | IC50 (SJSA-1 cells; [1]): 0.012 µM; IC50 (SN40R2 cells): 12 µM |
| CC(O)(c1cc(F)c2c(c1)C(=O)N(Cc1ncc(Cl)cn1)[C@@]2(OCC1(CO)CC1)c1ccc(Cl)cc1)[C@H]1CC[C@H](O)CC1 (stereo partly drawn) [Example 401, (3R)-3-(4-chlorophenyl)-2-[(5-chloropyrimidin-2-yl)methyl]-4-fluoro-6-{1-hydroxy-1-[trans-4-hydroxycyclohexyl]ethyl}-3-{[1-(hydroxymethyl)cyclopropyl]methoxy}-2,3-dihydro-1H-isoindol-1-one] | 6 | IC50 (SJSA-1 cells; [5]): 0.0098 µM |
| CCC(O)(c1cc(F)c2c(c1)C(=O)N(Cc1ccc(C#N)cn1)[C@@]2(OCC1(F)COC1)c1ccc(Cl)cc1)c1cn(C)cn1 (stereo partly drawn) [Example 435, 6-{[(1R)-1-(4-chlorophenyl)-7-fluoro-1-[(3-fluorooxetan-3-yl)methoxy]-5-[1-hydroxy-1-(1-methyl-1H-imidazol-4-yl)propyl]-3-oxo-2,3-dihydro-1H-isoindol-2-yl]methyl}pyridine-3-carbonitrile] | 0 | IC50 (SJSA-1 cells; [3]): 0.015 µM |
| CCC(O)(c1cc(F)c2c(c1)C(=O)N(Cc1ncc(C#N)cn1)[C@@]2(OC1CCC(O)C1)c1ccc(Cl)cc1)c1cn(C)cn1 (stereo partly drawn) [Example 461, 2-{[(1R)-1-(4-chlorophenyl)-7-fluoro-5-[1-hydroxy-1-(1-methyl-1H-imidazol-4-yl)propyl]-1-[(trans-3-hydroxycyclopentyl)oxy]-3-oxo-2,3-dihydro-1H-isoindol-2-yl]methyl}pyrimidine-5-carbonitrile] | 6 |  |
| C=C(CO)CO[C@]1(c2ccc(Cl)cc2)c2c(F)cc(C(O)(CC)c3cn(C)cn3)cc2C(=O)N1Cc1ccc(C#N)cn1 (stereo partly drawn) [Example 466, 6-{[(1R)-1-(4-chlorophenyl)-7-fluoro-5-[1-hydroxy-1-(1-methyl-1H-imidazol-4-yl)propyl]-1-(3-hydroxy-2-methylidenepropoxy)-3-oxo-2,3-dihydro-1H-isoindol-2-yl]methyl}pyridine-3-carbonitrile] | 4 |  |
| CC(O)(c1cc(F)c2c(c1)C(=O)N(Cc1ncc(Cl)cn1)[C@@]2(O[C@H]1CCOC1)c1ccc(Cl)cc1)C1(F)CCOCC1 (stereo partly drawn) [Example 493, (3R)-3-(4-chlorophenyl)-2-[(5-chloropyrimidin-2-yl)methyl]-4-fluoro-6-[1-(4-fluorooxan-4-yl)-1-hydroxyethyl]-3-[(3S)-oxolan-3-yloxy]-2,3-dihydro-1H-isoindol-1-one] | 11 |  |
| CC[C@](O)(c1cc(F)c2c(c1)C(=O)N(Cc1ncc(Cl)cn1)[C@@]2(OCCO)c1ccc(Cl)cc1)C1(F)CCOCC1 [Example 502, (3R)-3-(4-chlorophenyl)-2-[(5-chloropyrimidin-2-yl)methyl]-4-fluoro-6-[(1S)-1-(4-fluorooxan-4-yl)-1-hydroxypropyl]-3-(2-hydroxyethoxy)-2,3-dihydro-1H-isoindol-1-one] | 11 |  |
| CC[C@@](O)(c1cc(F)c2c(c1)C(=O)N(Cc1ccc(C)nc1C(=O)O)[C@@]2(OC)c1ccc(Cl)cc1)C1(F)CCOCC1 [Example 515, 3-{[(1R)-1-(4-chlorophenyl)-7-fluoro-5-[(1R)-1-(4-fluorooxan-4-yl)-1-hydroxypropyl]-1-methoxy-3-oxo-2,3-dihydro-1H-isoindol-2-yl]methyl}-6-methylpyridine-2-carboxylic acid] | 8 |  |
| [2H]C([2H])(c1ncc(Cl)cn1)N1C(=O)c2cc(C(C)(O)C3(F)CCOCC3)cc(F)c2[C@]1(O[C@H]1CCOC1)c1ccc(Cl)cc1 (stereo partly drawn) [Example 516, (3R)-3-(4-chlorophenyl)-2-[(5-chloropyrimidin-2-yl)dideuteromethyl]-4-fluoro-6-[1-(4-fluorooxan-4-yl)-1-hydroxyethyl]-3-[(3S)-oxolan-3-yloxy]-2,3-dihydro-1H-isoindol-1-one] | 4 |  |
| CCC(O)(CN(C)C)c1cc(F)c2c(c1)C(=O)N(Cc1ncc(Cl)cn1)[C@@]2(O[C@H]1CCOC1)c1ccc(Cl)cc1 (stereo partly drawn) [Example 528, (3R)-3-(4-chlorophenyl)-2-[(5-chloropyrimidin-2-yl)methyl]-6-[1-(dimethylamino)-2-hydroxybutan-2-yl]-4-fluoro-3-[(3S)-oxolan-3-yloxy]-2,3-dihydro-1H-isoindol-1-one] | 10 |  |
| CC[C@@](O)(c1cc(F)c2c(c1)C(=O)N(Cc1ncc(Cl)cn1)[C@@]2(OC)c1ccc(Cl)cc1)C1CCN(C)CC1 [Example 553, (3R)-3-(4-chlorophenyl)-2-[(5-chloropyrimidin-2-yl)methyl]-4-fluoro-6-[(1S)-1-hydroxy-1-(1-methylpiperidin-4-yl)propyl]-3-methoxy-2,3-dihydro-1H-isoindol-1-one] | 24 |  |
| CC[C@@](O)(c1cc(F)c2c(c1)C(=O)N(Cc1ncc(Cl)cn1)[C@@]2(OCCO)c1ccc(Cl)cc1)C1CCN(C)CC1 [Example 559, (3R)-3-(4-chlorophenyl)-2-[(5-chloropyrimidin-2-yl)methyl]-4-fluoro-6-[(1S)-1-hydroxy-1-(1-methylpiperidin-4-yl)propyl]-3-(2-hydroxyethoxy)-2,3-dihydro-1H-isoindol-1-one] | 1 |  |
| CC[C@@](O)(c1cc(F)c2c(c1)C(=O)N(Cc1ncc(Cl)cn1)[C@@]2(OC[C@@H](C)O)c1ccc(Cl)cc1)C1CCN(C)CC1 [Example 562, (3R)-3-(4-chlorophenyl)-2-[(5-chloropyrimidin-2-yl)methyl]-4-fluoro-6-[(1S)-1-hydroxy-1-(1-methylpiperidin-4-yl)propyl]-3-[(2R)-2-hydroxypropoxy]-2,3-dihydro-1H-isoindol-1-one] | 1 |  |
| CC[C@](O)(c1cc(F)c2c(c1)C(=O)N(Cc1ncc(Cl)cn1)[C@@]2(OC)c1ccc(Cl)cc1)C1CCN(C)CC1 [Example 566, (3R)-3-(4-chlorophenyl)-2-[(5-chloropyrimidin-2-yl)methyl]-4-fluoro-6-[(1R)-1-hydroxy-1-(1-methylpiperidin-4-yl)propyl]-3-methoxy-2,3-dihydro-1H-isoindol-1-one] | 46 |  |
| CC(O)(c1cc(F)c2c(c1)C(=O)N(Cc1ccc(C#N)cn1)[C@@]2(OC[C@H](O)CF)c1ccc(Cl)cc1)C1(F)CCOCC1 (stereo partly drawn) [Example 579, 6-{[(1R)-1-(4-chlorophenyl)-7-fluoro-1-[(2S)-3-fluoro-2-hydroxypropoxy]-5-[1-(4-fluorooxan-4-yl)-1-hydroxyethyl]-3-oxo-2,3-dihydro-1H-isoindol-2-yl]methyl}pyridine-3-carbonitrile] | 4 |  |
| [2H]C([2H])(O)C([2H])([2H])O[C@]1(c2ccc(Cl)cc2)c2c(F)cc(C(O)(CC)C3(F)CCN(C)CC3)cc2C(=O)N1Cc1ncc(Cl)cn1 (stereo partly drawn) [Example 580, (3R)-3-(4-chlorophenyl)-2-[(5-chloropyrimidin-2-yl)methyl]-4-fluoro-6-[1-(4-fluoro-1-methylpiperidin-4-yl)-1-hydroxypropyl]-3-[2-hydroxy(1,1,2,2-tetradeutero)ethoxy]-2,3-dihydro-1H-isoindol-1-one] |  | inhibition at 10 µM (SN40R2 cells; read-out: SN40R2 % inhibition at 10, Protocol B, SN40R2, at 10 μM): 13% |
